Laboratory results: patent US6451976B1, “Bi-or multifunctional molecules based on a dendroaspin scaffold” (Trigen Limited, priority 1997, dated 2002)

B1: SEQ ID NO:43: modified dendroaspin with hirudin domain grafted into loops I and II (protein)
chain: RICFTPRGDMPGPYPGPCQEDSCYKNIWTFDNIIRRGCGCFTPRGDMPGPYFPRPQSHNDGDFEEIPEEYLQ

Experiments:
washed platelets = experiment: Thrombin-induced platelet aggregation; format: cell-based, human; conditions: summary of FIG. 3D
Protocol: (§1) Platelet aggregation: Platelet aggregation was measured by the increase in light transmission as described in Lu et al (1994) Biochem J 304: 929-936 and used to identify RGD function. Briefly, platelet rich plasma (PRP) was prepared from citrated human blood from healthy individuals by centrifugation at 200 g for 15 min. Platelets were prepared from PRP by centrifugation at 1200 g for 15 min. The pellets were washed and resuspended in adhesion/aggregation buffer (145 mM NaCl, 5 mM Kcl, 1 mM MgCl2, 2 mM CaCl2, 10 mM glucose, 3.5 mg/ml BSA and 10 mM HEPES, pH 7.35) and adjusted to a count of 3×10^8/ml. Platelet aggregation (320 μl incubations) was induced with 10 μM ADP in the presence of 1.67 mg/ml fibrinogen and measured using a Payton Dual-Aggregometer linked to a chart recorder.
Thrombin-induced platelet aggregation: Thrombin-induced platelet aggregation in washed platelets for both wild-type and mutant dendroaspins were determined as described in Example 3 above, except thrombin was used as an agonist.

thrombin = thrombin (Homo sapiens, UniProt P00734); experiment: Thrombin-induced fibrinogen clotting time; format: biochemical; conditions: summary of FIG. 3D
Protocol: Thrombin-induced fibrinogen clotting time: Thrombin-induced fibrinogen clotting time was determined using an Amelung KC-10 instrument as follows. 50 μl of thrombin (3.3 μg/ml) in 50 mM Tris-HCL, pH7.5, containing 150 mM NaCl and 5 mM CaCl2 was mixed with 10 μl of various concentrations of both modified (Den-TM) and wild type dendroaspin (as a control for comparison). After a 2 min incubation at 37° C., 100 μl of fibrinogen (160 μg/ml) in the same buffer was added to determine the clotting time.
Amidolytic activity of thrombin and clotting of fibrinogen: The amidolytic activity of α-thrombin was performed using the chromogenic substrate S-2238 (Chromogenix) and α-thrombin at a final concentration of 0.06 unit/ml. Thrombin releases p-nitroaniline from the substrate and the rate of this reaction was monitored in microtiter plates at 405 nm using an automated spectrophotometer (Autoreader III, Ortho Diagnostic Systems). The inhibitory effect of Den-HR on thrombin cleavage of the chromogenic substrate was measured at final concentration between nM-mM. […] The time to observe the start of fibrinogen clotting (thrombin time) was measured using an automated coagulometer at 37° C. The effect of mutants on fibrinogen clotting by α-thrombin was determined by substituting the HEPES buffer in the first mixture with mutants at a range of concentrations.

platelets = experiment: ADP-induced platelet aggregation (RGD function); format: cell-based, human; conditions: summary of FIG. 3D
Protocol: as §1

[1] = tested on: binding of platelets to immobilized fibronectin; conditions: Lu X et al (1994); cited from earlier work
[2] = tested on: platelet adhesion to fibrinogen; conditions: Lu X et al (1994); cited from earlier work

Molecule | inhibition of thrombin-induced platelet aggregation (washed platelets) | thrombin clotting time (thrombin) | inhibition of ADP-induced platelet aggregation (platelets) | inhibition of binding of platelets to immobilized fibronectin [1] | inhibition of platelet adhesion to fibrinogen [2]
SEQ ID NO:46: dendroaspin carrying the thrombomodulin-binding sequence of the B-chain of human thrombin; bifunctional molecule (RICFTPRGDMPGPYPGPCQEDSCYKNIWTFDNIIRRGPGPTWTANVGKGQPS) | inhibits | delay | inhibits | – | –
kistrin | – | – | – | poor antagonists | potent inhibitors
B1 | inhibits | delays | inhibits | – | –
